Laboratory results from US8475804B2 (priority 2009, dated 2013).
pIC50: −log10 of the molar value. Structures can show the parent of a compound that is named as a salt. Where two headings read alike, the source gives them in different places. Residues, ends and D or L forms follow the SMILES beside them. *: point of attachment. Cbz = O=C(OCc1ccccc1)*

Test system: Ebola virus
Assay: microbe, parasite or virus in culture
Assay type: cell-based, Ebolavirus (EBOV)
Conditions: for Emax: read-out: Max Effect

| Compound | Max Effect | pIC50 (Zaire ebolavirus, Vero) | Emax (Zaire ebolavirus, Vero) [%] | also measured |
| --- | --- | --- | --- | --- |
| O=[N+]([O-])c1ccccc1OCCCCCOc1ccccc1[N+](=O)[O-] [1,5′-Bis(2-Nitrophenoxy)pentane] | 0.531 |  |  | pIC50 (read-out: IC50): 4.89 |
| COc1ccc(OC)c2c(=S)c3ccccc3[nH]c12 [NSC 625987] | 0.418 |  |  |  |
| CC(C)C[C@@H](C=O)NC(=O)[C@H](CC(C)C)NC(=O)[C@H](CC(C)C)NC(=O)OCc1ccccc1 [MG-132] (Cbz-Leu-Leu-Leu-aldehyde) |  | > 6.22 | 90 |  |
| CN1CCCN(C(c2ccccc2)c2ccc(Cl)cc2)CC1 (stereo not shown) [Homochlorcyclizine dihydrochloride] |  | 5.06 | 50.8 |  |
| O=C(c1ccc(OCCN2CCCCC2)cc1)c1c(-c2ccc(O)cc2)sc2cc(O)ccc12 [Raloxifene Hydrochloride] |  | 5.62 | 69.1 |  |
| Nc1[nH]c(=O)ncc1F [Flucytosine] |  | 5.36 | 79.3 |  |
| Nonoxynol-9 | 0.535 |  |  | pIC50 (read-out: IC50): 5.06 |
| CC(O)(CS(=O)(=O)c1ccc(F)cc1)C(=O)Nc1ccc(C#N)c(C(F)(F)F)c1 (stereo not shown) [Bicalutamide] |  |  | 46.4 |  |
| CC(C(=O)[O-])c1cccc(Oc2ccccc2)c1.CC(C(=O)[O-])c1cccc(Oc2ccccc2)c1.[Ca+2] (stereo not shown) [Fenoprofen Calcium] | 0.454 |  |  |  |
| COc1cc([C@@H]2c3cc4c(cc3[C@H](O)[C@H]3COC(=O)[C@H]23)OCO4)cc(OC)c1OC [Podofilox] |  | 5.74 | 80 |  |
| CN(C)CCOC(C)(c1ccccc1)c1ccccn1 (stereo not shown) [Doxylamine Succinate] |  | 5.28 | 73.1 |  |
| CCCN1C[C@H](CSC)C[C@@H]2c3cccc4[nH]cc(c34)C[C@H]21 [Pergolide Mesylate] |  |  | 38.3 |  |
| CN(C)C(=O)C(CCN1CCC(O)(c2ccc(Cl)cc2)CC1)(c1ccccc1)c1ccccc1 [Loperamide Hydrochloride] |  |  |  | Max Effect (Hydrochloride): 0.418 |
| OCCN1CCN(CCCN2c3ccccc3Sc3ccc(Cl)cc32)CC1 [Perphenazine] |  | 5.24 | 79.3 |  |
| CC[C@H]1/C=C/C=C/C[C@@H](C)[C@H](O)[C@@](C)(O)C(=O)[C@@H](C)[C@H](O)[C@@H](C)C(=O)[C@@H](C)[C@H](O)[C@@H](C)/C=C/C(=O)O[C@@H]2[C@H](C)[C@H](CC1)O[C@]1(CC[C@H](C)[C@H](C[C@@H](C)O)O1)[C@H]2C [Oligomycin] |  |  | 42.6 |  |
| COC(=O)Nc1nc2ccc(C(=O)c3ccccc3)cc2[nH]1 [Mebendazole] |  | 6.15 | 50 |  |
| COc1ccc(-c2nc(C(=O)N3CCN(C)CC3)sc2-c2ccc(OC)cc2)cc1 [FR122047] | 0.688 |  |  | pIC50 (read-out: IC50): 5.43 |
| C1CCC(C(CC2CCCCN2)C2CCCCC2)CC1 (stereo not shown) [Perhexiline Maleate] |  | 5.39 | 89 |  |
| O=C(Nc1cc(C(F)(F)F)cc(C(F)(F)F)c1)c1cc(Cl)ccc1O [IMD-0354] |  | 5.51 | 66.1 |  |
| CC1(C)C[C@@H]1C(=O)N/C(=C\CCCCSC[C@H](N)C(=O)O)C(=O)O [Cilastatin Sodium] |  | 5.06 | 91.2 |  |
| C=CC(C)(C)c1cc(/C=C/C(=O)c2ccc(O)cc2)c(OC)cc1O [Licochalcone-A] | 0.522 |  |  | pIC50 (read-out: IC50): 5.33 |
| CN1CCC(CN2c3ccccc3Sc3ccccc32)C1 (stereo not shown) [Methdilazine Hydrochloride] |  | 5.15 | 51.9 |  |

| Compound | Max Effect | pIC50 (Zaire ebolavirus, Vero) | Emax (Zaire ebolavirus, Vero) [%] | also measured |
| --- | --- | --- | --- | --- |
| COc1ccc2cc1Oc1ccc(cc1)C[C@H]1c3c(cc4c(c3Oc3cc5c(cc3OC)CCN(C)[C@@H]5C2)OCO4)CCN1C [Cepharanthine] |  | 5.25 | 65.2 |  |
| CC(C)(C)c1ccc(C(O)CCCN2CCC(C(O)(c3ccccc3)c3ccccc3)CC2)cc1 (stereo not shown) [Terfenadine] |  | 5.21 | 91.4 |  |
| COC(=O)Nc1nc2ccc(C(=O)c3cccs3)cc2[nH]1 [Nocodazole] |  | 6.30 | 80 |  |
| C/C=C(/C)C(=O)O[C@H]1C(C)=C2[C@H]([C@@H]1OC(=O)CCCCCCC)[C@@](C)(OC(C)=O)C[C@H](OC(=O)CCC)[C@@]1(O)[C@H]2OC(=O)[C@@]1(C)O [Thapsigargin] |  | > 6.52 | 70 |  |
| Sodium Vanadate |  |  |  | pIC50 (read-out: IC50): 4.89 |
| C#C[C@]1(O)CC[C@H]2[C@@H]3[C@H](C)CC4=C(CCC(=O)C4)[C@H]3CC[C@@]21C [Tibolone] |  | 5.92 | 112 |  |
| COc1cc2c(cc1OC)[C@@H]1C(=O)c3ccc4c(c3O[C@@H]1CO2)C=CC(C)(C)O4 [Deguelin] |  | 6.30 | 41.8 |  |
| Chondroitin Sulfate | 0.535 |  |  | pIC50 (read-out: IC50): 4.94 |
| Nc1nc(-c2nn(Cc3ccccc3F)c3ncccc23)ncc1C1CC1 [Bay 41-2272] | 0.900 |  |  | pIC50 (read-out: IC50): > 6.30 |
| O=C(/C=C/c1ccc(O)c(O)c1)OCCc1ccccc1 [CAPE] | 0.368 |  |  |  |
| C[C@H]1CCC/C=C/[C@@H]2C[C@H](O)C[C@H]2[C@H](O)/C=C/C(=O)O1 [Brefeldin A] | 0.900 |  |  | pIC50 (read-out: IC50): > 5.80 |
| NC(=O)C[C@H](N)C(=O)O [L-Asparagine] |  | 5.14 | 77.1 |  |
| [O-][n+]1ccccc1[S-].[O-][n+]1ccccc1[S-].[Zn+2] [Pyrithione Zinc] | 0.767 |  |  |  |
| N#CC(C#N)=NNc1ccc(OC(F)(F)F)cc1 [Carbonyl cyanide 4-(trifluoromethoxy)phenylhydrazone] |  | 5.35 | 75.2 |  |
| CN(C)C(=O)C(CCN1CCC(O)(c2ccc(Cl)cc2)CC1)(c1ccccc1)c1ccccc1 [Loperamide] | 0.716 |  |  |  |
| CNC(=O)c1cc(Oc2ccc(NC(=O)Nc3ccc(Cl)c(C(F)(F)F)c3)cc2)ccn1 [Sorafenib Tosylate] |  | 5.41 | 81.9 |  |
| Gramicidin | 0.678 |  |  |  |
| Nc1ncnc2c1c(I)cn2[C@@H]1O[C@H](CO)[C@@H](O)[C@H]1O [5-Iodotubercidin] | 0.369 |  |  |  |
| COc1cc(C[C@H]2C(=O)OC[C@@H]2Cc2ccc(OC)c(OC)c2)ccc1O [(−)-Arctigenin] | 0.411 |  |  |  |
| CN(C)CCCN1c2ccccc2Sc2ccc(C(F)(F)F)cc21 [Triflupromazine Hydrochloride] |  | 4.92 | 54.1 |  |
| COc1ccc(C[C@H](N)C(=O)N[C@H]2[C@@H](O)[C@H](n3cnc4c(N(C)C)ncnc43)O[C@@H]2CO)cc1 [Puromycin dihydrochloride] |  | 5.18 | 83.5 |  |
| CCOC(=O)C1=C(COCCN)NC(C)=C(C(=O)OC)C1c1ccccc1Cl (stereo not shown) [Amlodipine Besylate] |  | 4.88 | 52.8 |  |

| Compound | Max Effect | pIC50 (Zaire ebolavirus, Vero) | Emax (Zaire ebolavirus, Vero) [%] | also measured |
| --- | --- | --- | --- | --- |
| CCOC(=O)N1CCC(=C2c3ccc(Cl)cc3CCc3cccnc32)CC1 [Loratadine] |  |  | 37.1 |  |
| C[C@@H]1C[C@@H]([C@H](O)CC2CC(=O)NC(=O)C2)C(=O)[C@@H](C)C1 [Cycloheximide] |  | > 5.80 | 90 |  |
| C#C[C@]1(O)CC[C@H]2[C@@H]3CCc4cc(OC5CCCC5)ccc4[C@H]3CC[C@@]21C [Quinestrol] |  | 5.14 | 54.9 |  |
| Oc1c2ccccc2c2c3c(cccc13)N=N2 [SP 600125] |  |  | 36.5 |  |
| COc1ccc(C[C@H]2NC[C@H](O)[C@H]2OC(C)=O)cc1 [Anisomycin] | 0.900 |  |  | pIC50 (read-out: IC50): > 5.80 |
| c1ccc2c(c1)[I+]c1ccccc1-2 [Diphenyleneiodonium chloride] |  | > 5.80 | 80 |  |
| CCCC[C@H]1C(=O)O[C@H](C)[C@H](NC(=O)c2cccc(NC=O)c2OC)C(=O)O[C@@H](C)[C@@H]1OC(=O)CC(C)C [2-Methoxy-antimycin A3] | 0.791 |  |  | pIC50 (read-out: IC50): 5.92 |
| CCCCCCCCOC(=O)c1cc(O)c(O)c(O)c1 [Octyl Gallate] |  |  | 43.9 |  |
| CCCCCCCCCCCCCC(=O)O[C@@H]1[C@@H](C)[C@@]2(O)[C@@H](C=C(CO)C[C@]3(O)C(=O)C(C)=C[C@@H]23)[C@@H]2C(C)(C)[C@]12OC(C)=O [PMA] | 0.800 |  |  | pIC50 (read-out: IC50): > 6.74 |
| CSc1ccc2c(c1)N(CCC1CCCCN1C)c1ccccc1S2.Cl (stereo not shown) [Thioridazine Hydrochloride] | 0.915 |  |  | Max Effect Vero: 0.954; pIC50 (read-out: IC50): 5.37; IC50 (read-out: IC50 (μM) Vero): 6.2 µM |
| CC(=O)OCC1=C(C(=O)O)N2C(=O)[C@@H](NC(=O)CSc3ccncc3)[C@H]2SC1 [Cephapirin Sodium] |  | 5.01 | 66.2 |  |
| CCCCCC(=O)O[C@]1(C(C)=O)CC[C@H]2[C@@H]3CCC4=CC(=O)CC[C@]4(C)[C@H]3CC[C@@]21C [Hydroxyprogesterone Caproate] |  | 5.43 | 71.9 |  |
| O=C([O-])CN(CCN(CC(=O)[O-])CC(=O)[O-])CC(=O)[O-].[Ca+2].[Na+].[Na+] [Edetate Calcium Disodium] |  | 5.18 | 84.1 |  |
| CO[C@@H]1[C@@H](OC)[C@H](C)[C@@](O)(CC(=O)O)O[C@H]1[C@H](C)[C@H]1O[C@@]2(CC[C@@](C)([C@H]3CC[C@@](C)([C@@H]4O[C@@H]([C@H]5O[C@](C)(O)[C@H](C)C[C@@H]5C)C[C@@H]4O[C@@H]4C[C@H](OC)[C@@H](OC)[C@H](C)O4)O3)O2)C[C@H](O)[C@H]1C [Maduramicin NH4] |  |  | 45.2 |  |
| CC(C)[C@]12O[C@H]1[C@@H]1O[C@]13[C@]1(O[C@H]1C[C@H]1C4=C(CC[C@@]13C)C(=O)OC4)[C@@H]2O [Triptolide] |  | > 7.00 | 85 |  |
| O=C(OC[C@H]1O[C@@H](OC(=O)c2cc(O)c(O)c(O)c2)[C@H](OC(=O)c2cc(O)c(O)c(O)c2)[C@@H](OC(=O)c2cc(O)c(O)c(O)c2)[C@@H]1OC(=O)c1cc(O)c(O)c(O)c1)c1cc(O)c(O)c(O)c1 [PGG (1,2,3,4,6-b-O-Pentagalloyl glucose), 1,2,3,4,6-b-O-Pentagalloyl glucose] | 0.487 |  |  | pIC50 (read-out: IC50): 5.49 |
| CCN(CC)CCNC(=O)c1c(C)[nH]c(/C=C2\C(=O)Nc3ccc(F)cc32)c1C [Sunitinib Malate] |  | 5.36 | 78.8 |  |
| Fc1ccc(C(c2ccc(F)cc2)N2CCN(C/C=C/c3ccccc3)CC2)cc1 [Flunarizine Hydrochloride] |  |  | 40.2 |  |
| CCOc1ccc(/C=C2\NCCc3cc(OCC)c(OCC)cc32)cc1OCC [Drotaverine Hydrochloride] |  |  | 36.7 |  |
| Beta Escin | 0.878 |  |  |  |
| COC(=O)Nc1nc2ccc(Sc3ccccc3)cc2[nH]1 [Fenbendazole] |  | 5.24 | 50 |  |
